“Also recorded” adds a separate entry of the source. Like-named read-outs stand apart in the source and are kept apart here. Where only a bound is given, the exact number is not on record here.

Series [1] deals with human lung adenocarcinoma cell line A549. Kind of series: MTT cytotoxicity assay, A549. As to conditions: read-out: Cytotoxic activity (IC50) A549. It is filed as cell-based. How it is done:
(§1) Cytotoxicity assays were performed on the human gastric carcinoma cell line BGC-823, the human lung adenocarcinoma cell line A549, the human hepatocellular liver carcinoma HepG2, and the normal human hepatic immortal cell line HL-7702. Cells (3500–13,000) were seeded into 96-well microtest plates in 100 μL of culture medium per well (Falcon, CA). The cells were treated in triplicate with a gradient concentration of test compounds and incubated at 37 °C in RPMI-1640 with 100 mg L^−1 kanamycin and 10% (v/v) fetal bovine serum in a humidified atmosphere containing 5% CO2 for 48 h. The plating efficiencies of the untreated cells varied between experiments with values ranging from 14 to 31% for the HL-7702 cells. For all cell lines, microculture tetrazolium [3-(4, 5-dimethylthiazol-2-yl)−2, 5-diphenyltetrazolium bromide, MTT; Sigma, St. Louis, MO] assay was performed to measure cytotoxic effects. […] The initial seeding densities varied among the cell lines to ensure a final absorbance reading in control (untreated) cultures within the range of 0.6–0.8 A492 units. […] Each test was performed in triplicate, and the absorbance readings between the triplicates varied by no more than 5%.
(§2) Data presented as means ± SD. Statistical analyses were performed by the analysis of variance (ANOVA). All statistical analyses were performed using Origin version 8.0 ([…], OriginLab Corp., Northampton, MA, USA). Sigmoidal dose responses and non-linear regression analyses were undertaken to identify half-maximal concentrations for each of the drugs. To evaluate differences in IC50 concentrations, analysis of variance combined with Tukey’s multiple range test was used.

In series [2] the test system is human hepatocellular liver carcinoma HepG2. The series can be described thus: MTT cytotoxicity assay, HepG2. It is filed as cell-based. The following applies: read-out: Cytotoxic activity (IC50) HepG2. How it is done: as §1, §2
A general note: Tetrazolium assays rely on reduction of a dye to a coloured formazan, in cell work by metabolically active cells.

The subject of series [3] is human gastric carcinoma cell line BGC-823. Kind of series: MTT cytotoxicity assay, BGC-823. It counts as cell-based. The following applies: read-out: Cytotoxic activity (IC50) BGC-823. The procedure: as §1, §2
Series [4] is described as follows: MTT cytotoxicity assay, normal human cells HL-7720. It is filed as cell-based. The following applies: drug exposure 48 h, mean ± SD (n = 3), read-out: Cytotoxic activity (IC50) HL-7720. How it is done:
as §1, §2

The test system of series [5] is A549 cells. Kind of series: Immunofluorescence staining of tubulin and nuclei. It is filed as cell-based, human. As to conditions: 1 μM, 12 hours. How it is done:
(§3) The degree of tubulin polymerization was evaluated through pellet mass formation in centrifugation assays in the presence of stoichiometric and semi-stoichiometric concentrations of each lignan.
Cells were fixed with 4% paraformaldehyde in phospate buffered saline (PBS), permeabilized with 0.5% Triton X-100 in PBS, and then tubulin was immunostained with monoclonal antibody to tubulin (B5-1-2, Sigma) followed by fluorescein 5-isothiocyanate (FITC) conjugated secondary antibody. Nuclei were labeled with 4′, 6-diamidino-2-phenylindole (DAPI). Fluorescence labeled tubulin and nuclei were observed using a Zeiss Axioplan fluorescence microscope, and images were captured by a XL16 Excel cooled digital camera controlled by the Dage Exponent software (Dage-MTI). Final images were prepared using Adobe Photoshop. The cells were then processed for immunofluoscence staining and confocal microscopy (× 600).

Series [6] has as its target tubulin. Kind of series: Surface plasmon resonance binding to immobilized tubulin. As to conditions: 1:1 Langmuir model, HBS-T buffer pH 7.4; read-out: equilibrium dissociation constant (KD value), SPR. The procedure: as §3
Based on the surface plasmon resonance (SPR) technology, the binding affinity of compounds to tubulin was determined with the ProteOn^TM XPR36 Protein Interaction Array System (Bio-Rad, Hercules, CA). For this purpose, tubulin was dissolved in 10 mM sodium acetate buffer (pH 3.5) and immobilized to the ProteOn^TM GLH sensor chip with the ProteOn^TM amine coupling kit. The final immobilization level was 8000 RU (Response unit). […] Data were analyzed with the ProteOn^TM Manager software, fitted to the 1:1 Langmuir model.
On the technique in general: Surface plasmon resonance follows binding to a sensor surface in real time, without labels.

For series [7], the system named is A549 cells. Kind of series: Cell cycle analysis (PI staining, flow cytometry). It counts as cell-based, human. As to conditions: for G2/M phase arrest ratio: after 24 h incubation until end of incubation. The procedure: Tubulin inhibitors block cell cycle progression in mitosis at the G2/M phase, and a prolonged mitotic arrest triggers various apoptotic pathways. […] After 24 h incubations, the G2/M phase arrest ratio remained at around 80% and 90% until the end of the incubation.
Cell cycle arrest detection in A549 cells using propidium iodide (PI) double staining treatment with different concentrations of 4-TG-PTOX (i.e., 0.1, 1, and 5 μM) for 6, 12, 24, 48 h, respectively. The A549 cell line was used for cell cycle analysis. Cells were treated in triplicate with a gradient concentration of test compounds and incubated at 37 °C in RPMI-1640 with 100 mg L^−1 kanamycin and 10% (v/v) fetal bovine serum in a humidified atmosphere containing 5% CO2 for 48 h. Untreated and drug-treated cells were centrifuged and fixed overnight in 70% ethanol at 4 °C. They were then washed three times with PBS, incubated for 1 h with 1 mg/ mL RNase A and […] propidium iodide at room temperature, and analyzed with a FACSCalibur flow cytometer (BD, USA).
On the technique in general: Flow cytometry measures light scatter and fluorescence of single cells or particles in a stream.

Series [8] relates to A549 cells. The series can be described thus: Cell apoptosis analysis (annexin V/PI flow cytometry). It is filed as cell-based, human. The following applies: for maximum level of apoptosis: 48 h. The procedure:
After 48 h of treatment with 4-TG-PTOX, the maximum levels of apoptosis reached were 63% and 67% at 4-TG-PTOX concentrations of 1 and 5 µM, respectively.
Cell apoptosis-inducing detection in A549 cells treatment with different concentrations of 4-TG-PTOX (i.e., 0.1, 1, and 5 μM) for 6, 12, 24, 48 h, respectively. In the early stages of apoptosis, phosphatidylserine (PS) was translocated from the inside of the cell membrane to the outside. Annexin V, a calcium dependent phospholipid-binding protein associated with a high affinity for phosphatidylserine, was used to detect early apoptotic cells. Propidine Iodide (PI) was a red fluorescent dye and stained cells that had lost membrane integrity. So, cells stained with FITC-annexin V and PI were discriminated necrotic cells (Q1, Annexin-/PI +), late apoptotic cells (Q2, Annexin +/PI+), intact cells (Q3, Annexin -/PI -) and early apoptotic cells (Q4, Annexin+/PI -).

The test system of series [9] is calf brain tubulin. Kind of series: Tubulin assembly inhibition, centrifugation assay. It is filed as biochemical. The following applies: 30 min at 37 °C, read-out: GI50, inhibition of tubulin polymerization. How it is done: as §3
Purification of calf brain tubulin and chemicals were followed as previously described by Andreu[20]. Ligands were dissolved in DMSO at 20 mM and kept at −80 °C. Work solutions were done in DMSO and kept at −20 °C. The 50% inhibitory ligand concentration of tubulin assembly was determined with a centrifugation assay. Tubulin was equilibrated prior to use in 3.4 M glycerol, 1 mM EGTA, 0.1 mM GTP, pH 7.0, buffer through a 25 cm × 0.9 cm Sephadex G-25 column. Aggregates were removed by a centrifugation at 90000 g × 10 min in a TLA 120 rotor at 4 °C in an Optima TLX centrifuge. Tubulin concentration was determined as described by Andreu[21]. Tubulin was kept at 4 °C, and 0.9 mM GTP and 6 mM MgCl2 were added to the sample. The solution was distributed in 200 μL polycarbonate tubes for the TL100 rotor. […] Microtubules were separated from unassembled tubulin by a centrifugation at 90000 g × 10 min in a TLA100 rotor at 37 °C in an Optima TLX centrifuge. […] The 50% inhibitory ligand concentration of tubulin assembly was determined with a centrifugation assay that measured the decrease in the concentrations of microtubules assembled in the presence of different concentrations of the compound.

Setting [10] is: A549, MTT, drug exposure 48 h, mean ± SD (n = 3).
Where [11] appears, read: HepG2, MTT, drug exposure 48 h, mean ± SD (n = 3).
Where [12] appears, read: BGC-823, MTT, drug exposure 48 h, mean ± SD (n = 3).

With `COc1cc([C@@H]2c3cc4c(cc3[C@H](O)[C@H]3COC(=O)[C@H]23)OCO4)cc(OC)c1OC` [PTOX, podophyllotoxin], the half-inhibitory concentration (IC50) (usually the concentration that gives 50% inhibition) turned out to be 20.2 ± 2.75 µM in series [1] (setting [10]), 8.36 ± 1.42 µM in series [2] (setting [11]) and 18.3 ± 2.22 µM in series [3] (setting [12]). The concentration for half-maximal inhibition (IC50) at 48 h in series [4] worked out at 4.31 ± 1.46 µM.
As for `COC(=O)Nc1nc2ccc(C(=O)c3cccs3)cc2[nH]1` [Nocodazole, nocodazole], the IC50 was found to be 27.4 ± 2.92 µM in series [1] (A549, 48 h); 18.4 ± 3.71 µM in series [2] (HepG2, 48 h); 38.9 ± 3.12 µM in [3] (BGC-823, 48 h). In addition, the IC50 at 48 h in [4] came to 8.51 ± 1.73 µM.
As for `COc1cc2c(c(OC)c1OC)-c1ccc(OC)c(=O)cc1[C@@H](NC(C)=O)CC2` [Colchicines, colchicine], the IC50 in series [1] (setting [10]) worked out at 12.2 ± 0.76 µM; in series [2] (setting [11]), 13.2 ± 0.88 µM; in series [3] (setting [12]), 12.2 ± 1.26 µM. In addition, the “effect on cellular microtubules (immunofluorescence)” value (“effect on cellular microtubules” below) in series [5] is given as “inhibited tubulin polymerization”. For the same molecule, the IC50 at 48 h in [4] came out at 6.42 ± 1.03 µM.
As to `COc1cc(C2c3cc4c(cc3C(Sc3nc(N)nc5nc[nH]c35)C3COC(=O)C23)OCO4)cc(OC)c1OC` (centres unmarked) [Compound 4-TG-PTOX], the IC50 in series [1] (setting [10]) came to 0.57 ± 0.92 µM; in [2] (setting [11]), 0.3 ± 0.34 µM; in [3] (setting [12]), 4.4 ± 1.55 µM. Also, in series [6], the equilibrium dissociation constant (Kd) (in general, the equilibrium constant for the complex coming apart) was found to be 6.2 µM. Also, in [7] (A549, 0.1 μM), the G2/M phase arrest entry is “arrested after 12 h and strongly arrested after 24 and 48 h”. For the same molecule, the “G2/M phase arrest ratio” value is given as “around 80%” in [7] (A549, 1 μM) and roughly 90% in series [7] (A549, 5 μM). For the same molecule, in series [5], the “effect on cellular microtubules” value is listed as “anti-microtubule activity was observed; also recorded: inhibited tubulin polymerization”. The “effect on nucleus (DAPI)” value in series [5] is recorded as “not damaged”. Further, the “ratio of apoptotic cells” value in [8] (A549, 0.1 μM) is on record as “unaffected”. Also, the “maximum level of apoptosis” value amounted to 63% in series [8] (A549, 1 µM) and 67% in series [8] (A549, 5 µM). Moreover, the IC50 at 48 h in series [4] was 13.5 ± 2.41 µM. Further, the GI50 – broadly, the concentration at which growth is held to half of that of the control – in [9] was less than 1 µM.
Regarding `COc1cc(C2c3cc4c(cc3C(Sc3ncnc5nc[nH]c35)C3COC(=O)C23)OCO4)cc(OC)c1OC` (centres unmarked) [Compound 4-MP-PTOX], the IC50 in series [1] (setting [10]) was found to be 1.12 ± 0.35 µM; in [2] (setting [11]), 1.14 ± 1.07 µM; in series [3] (setting [12]) it was 8.72 ± 3.15 µM. Moreover, the Kd in series [6] was determined as 8.7 µM. The “effect on cellular microtubules” value in series [5] is reported as “anti-microtubule activity was observed; also recorded: inhibited tubulin polymerization”. Further, the “effect on nucleus (DAPI)” value in series [5] is recorded as “not damaged”. For the same molecule, in series [4], the IC50 at 48 h was 11.3 ± 0.57 µM. Besides, in series [9], the GI50 is less than 2 µM.

These data come from publication PMC4426677, “Tubulin structure-based drug design for the development of novel 4β-sulfur-substituted podophyllum tubulin inhibitors with anti-tumor activity” (Scientific Reports, 2015).
